Laboratory results reported in patent US20070293517A1, “Derivatives Of Chemotherapeutic Agents With A Formaldehyde Releasing Moiety” (RAMOT AT TEL AVIV UNIVERSITY LTD., priority 2004, published 2007).

Assays:
[1] = test system: colon carcinoma cells; test: Viability of colon carcinoma cells (FIG. 12); format: cell-based
Method: (§1) Proliferation assay: cells at a density of 3-5×10^4 cells/ml in 200 μl medium supplemented with 10% FCS were seeded in tissue culture 96-well plates for 24 hours, and were then exposed for 72 hours to a novel derivative of a chemotherapeutic agent (in quadruplicate) as specified. After 3 days, the cells were rinsed with PBS, and fixed with ethanol (70%) for 30 minutes. The ethanol was thereafter discarded, 200 μl of 10 μg/ml HOECHST fluorescent dye (Sigma) solubilized in PBS were added and the fluorescence was measured at 390-460 nm with a FluoStar fluorometer. MTT solution (10 ml of 5 mg/ml MTT (Sigma) in PBS) was added, and the plate was incubated for 3 hours. Formazan crystals were dissolved with 140 ml of 0.04 HCl-isopropanol. The optical density of the wells was measured with a microplate reader at 540 nm.
Apoptosis assay: Cells (2×10^5 cells/ml) were seeded in 24-well plates and incubated with a derivative of a chemotherapeutic agent according to the present embodiments, as specified, for 24 hours. The cells were thereafter collected and double-stained with annexin V-FITC and propidium iodide, according to the manufacturer's instructions (MBL, Japan). Alive, apoptotic and total dead cells were quantitated by flow cytometry using a FACS calibur cytometer (Becton Dickinson).

[2] = test system: MES SA DXS; test: Proliferation assay, MES SA DXS cells; format: cell-based, human; conditions: for IC50 / IC90: MES SA DXS
Description: (§2) Cells: The human breast cancer cell lines MCF-7 and MCF-7 DX, were obtained from Dr. R. Supino (Laboratorio Oncologia, Milano, Italy); the murine 3LLD122 highly metastatic Lewis lung carcinoma cell line was obtained from Dr. Eisenbach L, the Weizmann Inst., Israel. The following cell lines were purchased from the ATCC, USA: CT-26, an N-nitroso-N-methylurethane-(NNMU) induced murine (BALB-C) colon carcinoma; Panc02, a mouse (C57/Bl) pancreas adenocarcinoma; HT-49, a human colorectal adenocarcinoma; LS1034, a multidrug resistant human colorectal carcinoma; BxPC-3 human pancreas adenocarcinoma; MES-SA and MES-SA-DXS, human uterine sarcoma sensitive and multidrug resistant, respectively; and Human prostate carcinoma 22RV1, a subclone of CWR22 cells.
(§3) The cells were maintained in DMEM growth medium supplemented with 10% heat inactivated fetal calf serum, 2 mM glutamine, penicillin (250 units/ml) and streptomycin (125 μg/ml) in a humidified 5% CO2/air atmosphere at 37° C.
as §1
(§4) IC50 and IC90 values were determined from the best-fitted curve where the percentages of survival were 50 or 90 respectively.

[3] = test system: MCF-7 DX; test: Proliferation assay, MCF-7 DX cells; format: cell-based, human
Method: (§5) Cells: The human breast cancer cell lines MCF-7 and MCF-7 DX, were obtained from Dr. R. Supino (Laboratorio Oncologia, Milano, Italy); the murine 3LLD122 highly metastatic Lewis lung carcinoma cell line was obtained from Dr. Eisenbach L, the Weizmann Inst., Israel. […]
as §1, with “After 3 days, the cells were rinsed with PBS, and fixed with ethanol (70%) for 30 minutes.” left out, “MTT solution (10 ml of 5 mg/ml MTT (Sigma) in PBS) was added, and the plate was incubated for 3 hours. Formazan crystals were dissolved with 140 ml of 0.04 HCl-isopropanol.” left out
as §4

[4] = test system: HT-29; test: Proliferation assay, HT-29 cells; format: cell-based, human
[5] = test system: LS-1034; test: Proliferation assay, LS-1034 cells; format: cell-based, human
Description: as §2, §3, §1, §4

[6] = test system: CT-26; test: Proliferation assay, CT-26 cells; format: cell-based, murine
Description: as §2, §3, §1, §4

[7] = test system: BXPC-3; test: Proliferation assay, BXPC-3 cells; format: cell-based, human
Description: as §2, §3, §1, §4

[8] = test system: Panc 02; test: Proliferation assay, Panc 02 cells; format: cell-based; conditions: Mus musculus, Panc02
Description: as §2, §3, §1, §4

[9] = test system: MES SA; test: Proliferation assay, MES SA cells; format: cell-based, human
Description: as §2, §3, §1, §4

[10] = test system: sensitive and resistant uterine cancer cells (MES-SA, MES-SA DXS); test: Proliferation/survival, sensitive and resistant uterine cancer cells (both lines); format: cell-based, human
Description: as §2, §1, §4

[11] = test system: colon cancer cells (LS-1034 and HT-29); test: Survival of colon cancer cells (both lines); format: cell-based, human
Method: as §5
as §1, with “After 3 days, the cells were rinsed with PBS, and fixed with ethanol (70%) for 30 minutes.” left out, “MTT solution (10 ml of 5 mg/ml MTT (Sigma) in PBS) was added, and the plate was incubated for 3 hours. Formazan crystals were dissolved with 140 ml of 0.04 HCl-isopropanol.” left out
as §4

[12] = test system: various cell lines; test: Dose response studies in various cell lines, absence and presence of semicarbazide; format: cell-based; conditions: semicarbazide 0.5 mM
Method: as §1
Semicarbazide sensitive amine oxidase is a source of formaldehyde and is therefore a marker for the effect of formaldehyde. It has been shown that semicarbazide traps formaldehyde and reduces its concentration inside the cell (Nudelman et al. J. Med. Chem., 2005, 48, 1047-1054). Thus, the critical role of formaldehyde can be confirmed by reversal of formaldehyde-mediated effects by the addition of semicarbazide.
Tables 3 and 4 below, as well as FIGS. 7A, 7B and 8A-8D present the dose response studies performed with various cell lines in the absence and presence of semicarbazide, the formaldehyde trapping agent.

[13] = test system: 3LLD122 Lewis lung carcinoma; test: Metastatic lung model (Lewis lung carcinoma); format: in vivo, mice
Method: Metastatic lung model: Female C57/BL mice, 6-10 weeks (Harlan, Israel) were […] implanted (in the tail vein) with 5×10^5 3LLD122 cells. Treatment with a derivative of a chemotherapeutic agent according to the present embodiments, for five days per week, commenced 24 hours post cell implantation. After 21 days the animals were sacrificed and their lung lesions were scored under an illuminated magnifying glass.

[14] = test system: HT-29 human colon carcinoma; test: Xenograft flank colon carcinoma model, HT29; format: in vivo; conditions: nude mice
Method: Xenograft flank colon carcinoma models: Eight weeks old, male CD1 nude mice (Harlan, Israel) were inoculated sc in the flanks with 5×10^6 HT29 or LS1034 cells. When tumor volume reached 50-100 mm^3, treatment with derivatives of chemotherapeutic agents according to the present embodiments commenced and was given by gavage five times a week for the duration of the experiment at the specified doses. Tumor volume (determined by caliper) and body weights were measured twice weekly. Tumor volume was measured (mm) using the formula for an ellipsoid sphere: Length×Width^2/2=Volume (mm)^3 This commonly used formula was also used to calculate tumor weight, assuming unit density (1 mm^3=1 mg). Serum PSA or CEA: […] At the end of the experiment blood samples were drawn from the eyes of mice (anesthetized slightly by inhalation of ether) or from the hearts of sacrificed animals.

[15] = test system: human colon carcinoma cells (LS1034); test: Xenograft flank colon carcinoma model, LS1034; format: in vivo; conditions: nude mice sc implanted with LS1034
Method: Xenograft flank colon carcinoma models: Eight weeks old, male CD1 nude mice (Harlan, Israel) were inoculated sc in the flanks with 5×10^6 HT29 or LS1034 cells. When tumor volume reached 50-100 mm^3, treatment with derivatives of chemotherapeutic agents according to the present embodiments commenced and was given by gavage five times a week for the duration of the experiment at the specified doses. Tumor volume (determined by caliper) and body weights were measured twice weekly. Tumor volume was measured (mm) using the formula for an ellipsoid sphere: Length×Width^2/2=Volume (mm)^3
Survival was estimated by the Kaplan-Meier curves, and the difference in survival between the groups was analyzed by Wilcoxon's test and using a log-rank test chi-square (JMP 5.0.1.2, Chicago, Ill.).

[16] = test system: histone acetylation; test: Histone acetylation in treated cells; format: cell-based
Method: Western blot analysis: Whole cell tissue lysates or acid extracted histones were solubilized in a 4-fold concentrated sample buffer and […] protein samples were separated by SDS-PAGE. The proteins were transferred to a nitrocellulose membrane (Schleicher & Schuell, Germany) and probed with the primary antibodies as indicated, followed by incubation with an HRP-goat anti-rabbit IgG secondary antibody. Visualization of the bound HRP-goat anti-rabbit IgG was performed using the enhanced chemiluminescence that was done using Western Blotting Luminol reagent (cat No. SC-2048, Santa Cruz, Calif., US). Equal amounts of reagent A and B were mixed, and added to the nitrocellulose membrane for 1 minute. Excess liquid was absorbed and the membrane was exposed for 5 minutes to Chemiluminescence BioMax light film (cat. No. 868 9358, Kodak, USA). The intensity of the bands was measured with a Versa Doc instrument with Quantityl program (Bio-Rad, USA). The fold increase of each specific protein was determined by the ratio of band intensities of treated and untreated cells, normalized to loading control (actin or histone H3).

Compound	effect on cancer cell viability (% of control) [1]	IC90 ([4]; HT-29, + SC 500 μM) [µM]	IC90 ([4]; Homo sapiens, HT-29) [µM]	IC50 ([4]; Homo sapiens, HT-29, HT-29) [µM]	IC90 ([5]; Homo sapiens, LS-1034) [µM]	IC50 ([5]; Homo sapiens, LS-1034, LS-1034) [µM]	IC90 ([5]; LS-1034, + SC 500 μM) [µM]	IC90 ([6]; CT-26, + SC 500 μM) [µM]	IC50 ([6]; Mus musculus, CT26, CT-26) [µM]	IC90 ([6]; Mus musculus, CT26, CT-26) [µM]	IC50 ([7]; + SC 500 μM) [µM]	IC90 ([7]; + SC 500 μM) [µM]	IC50 ([7]; Homo sapiens) [µM]	IC90 ([7]; Homo sapiens) [µM]	IC50 [8] [µM]	IC90 [8] [µM]	IC50 ([9]; + SC 500 μM) [µM]	IC90 ([9]; + SC 500 μM) [µM]	IC50 ([9]; Homo sapiens) [µM]	IC90 ([9]; Homo sapiens) [µM]	further results
CCCC(=O)OCn1c(=O)cc[nH]c1=O [AN-439, (2,3-Dihydro-2,6-dioxopyrimidin-1(6H)-yl)methyl butyrate]	reduced cell viability in a dose dependent manner	–	–	–	–	–	–	–	–	–	–	–	–	–	–	–	–	–	–	–	–
COc1cccc2c1C(=O)c1c(O)c3c(c(O)c1C2=O)C[C@@](O)(C(=O)CO)C[C@@H]3O[C@H]1C[C@H](N)[C@H](O)[C@H](C)O1 [Doxorubicin]	–	–	–	–	–	–	–	–	–	–	–	–	–	–	–	–	–	–	–	–	fold decrease in the inhibitory effect on proliferation, MES-SA DXS compared with the isogenetic non-resistant cell line [2]: approximately 30 fold; fold more resistant to doxorubicin, MCF-7 DX compared with MCF cells [3]: approximately 7 fold; IC50 ([3]; Homo sapiens, MCF7/DX, MCF-7 DX, 7 independent experiments): 392 ± 40 µM
O=c1c(F)cn([C@H]2CCCO2)c(=O)n1CO [AN-436, 5-fluoro-1-((R)-tetrahydrofuran-2-yl)-3-(hydroxymethyl)pyrimidine-2,4(1H,3H)-dione]	–	303 ± 7	115 ± 7	67 ± 2	153 ± 16	84 ± 8	252 ± 30	296 ± 28	99 ± 5	170 ± 9	160 ± 17	460 ± 78	81 ± 9	191 ± 47	96 ± 9	219 ± 25	182 ± 18	456 ± 189	71 ± 12	127 ± 19	IC50 ([4]; Homo sapiens, HT-29, HT-29, + SC (semicarbazide) 500 μM): 164 ± 12 µM; IC50 ([5]; Homo sapiens, LS-1034, LS-1034, + SC 500 μM): 132 ± 7 µM; IC50 ([6]; Mus musculus, CT26, CT-26, + SC 500 μM): 132 ± 26 µM; IC50 ([2]; Homo sapiens): 63 ± 4 µM; IC90 ([2]; Homo sapiens): 101 ± 2 µM; IC50 ([2]; + SC 500 μM): 203 ± 75 µM; IC90 ([2]; + SC 500 μM): 356 ± 144 µM; maximal cell killing achieved [10]: 100%; fold more potent than tegafur, based on IC50 values [11]: ≥ 2.5 fold; reduction of cell killing by co-treatment with semicarbazide [12]: up to 3.5 folds; antimetastatic activity (number of lung lesions) [13]: significantly evident; CEA level in serum [14]: reduced the level significantly; tumor growth inhibition ([14]; P<<0.001): substantially inhibited tumor growth; inhibitory effect on tumor growth compared with tegafur ([14]; p<0.05): significantly higher than the parent compound; survival after 82 days [15]: 75%
CCCC(=O)OCn1c(=O)c(F)cn(C2CCCO2)c1=O [AN-420, 5-fluoro-2,3-dihydro-3-((R)-tetrahydrofuran-2-yl)-2,6-dioxopyrimidin-1(6H)-yl)methyl butyrate]	significantly more effective than tegafur	138 ± 30	84 ± 21	35 ± 5	79 ± 23	42 ± 7	105 ± 29	94 ± 30	27 ± 4	76 ± 14	88 ± 6	280 ± 36	74 ± 4	141 ± 5	46 ± 3	149 ± 19	92 ± 14	214 ± 80	79 ± 22	177 ± 77	IC50 ([4]; HT-29, + SC (semicarbazide) 500 μM): 51 ± 5 µM; IC50 ([5]; LS-1034, + SC 500 μM): 52 ± 8 µM; IC50 ([6]; CT-26, + SC 500 μM): 34 ± 10 µM; IC50 ([2]; Homo sapiens): 54 ± 5 µM; IC90 ([2]; Homo sapiens): 95 ± 8 µM; IC50 ([2]; + SC 500 μM): 115 ± 29 µM; IC90 ([2]; + SC 500 μM): 312 ± 116 µM; maximal cell killing achieved [10]: 100%; fold more potent than tegafur, based on IC90 values [11]: ≥ 10 fold; reduction of cell killing by co-treatment with semicarbazide [12]: substantially reduced the cell killing; histone acetylation in treated cells [16]: increase of histone acetylation
